Where “and” joins values, the source holds several entries; their conditions need not be identical. Equal values may be shown once.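 Briefly, cells in 96-well plates were exposed to five compound concentrations for 48 h, and endpoints were estimated by linear interpolation. At the GI50, growth is halved. TGI: concentration producing complete growth inhibition.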 *1 amine or outer side, *2 acyl side, *3 side chain or, on linkers, in order; H or OH if unused. Where a SMILES comes first, the peptide text is derived from it. Bridges are numbered along the chain shown (N, C = ends). [ ]: non-standard residue; d: D form. ξ: configuration not given here. X4 = CCC(C)C(N[*:1])C(O)CC(=O)O[C@H](C(=O)C(C)C(=O)[*:2])C(C)C; NMeY = CN[C@@H](Cc1ccc(O)cc1)C(=O)O; ξNMeL = CNC(CC(C)C)C(=O)O; ξT = CC(O)C(N)C(=O)O
What was measured:
Assay in all cases: growth of human tumour cells (NCI), 48 h
HOP-92 NSCLC = test system: HOP-92 NSCLC
IGROV1 ovarian = test system: IGROV1 ovarian
NCI-H226 lung = test system: NCI-H226 lung
SF-268 CNS = test system: SF-268 CNS
SK-MEL-2 melanoma = test system: SK-MEL-2 melanoma
U251 CNS = test system: U251 CNS
UO-31 renal = test system: UO-31 renal
DU-145 prostate = test system: DU-145 prostate
HS 578T breast = test system: HS 578T breast
PC-3 prostate = test system: PC-3 prostate

Compound | TGI (HOP-92 NSCLC) [µM] | TGI (IGROV1 ovarian) [µM] | TGI (NCI-H226 lung) [µM] | TGI (SF-268 CNS) | TGI (SK-MEL-2 melanoma) [µM] | TGI (U251 CNS) [µM] | TGI (UO-31 renal) | TGI (DU-145 prostate) [µM] | TGI (HS 578T breast) [µM] | TGI (PC-3 prostate) [µM] | GI50 (DU-145 prostate) [nM] | GI50 (IGROV1 ovarian) [nM] | GI50 (PC-3 prostate) [nM] | GI50 (SF-268 CNS) [nM] | GI50 (SK-MEL-2 melanoma) [nM] | GI50 (U251 CNS) [nM] | GI50 (HOP-92 NSCLC) [nM] | GI50 (UO-31 renal) [nM] | GI50 (HS 578T breast) [nM]
C=C1C[C@]23C[C@@]1(O)CC[C@H]2[C@@]12C=C[C@H](O)[C@@](C)(C(=O)O1)[C@H]2[C@@H]3C(=O)O | > 100 | > 100 | > 100 | > 100 µM | > 100 | > 100 | > 100 µM |  |  |  |  |  |  |  |  |  |  |  | 
CN1CC(c2ccccc2)N(CCCCN2CC(c3ccccc3)N(C)CC2c2ccccc2)CC1c1ccccc1 (centres undefined) | > 100 | > 100 | > 100 | > 100 µM | 81.2 |  | > 100 µM | > 100 | > 100 | > 100 |  |  |  |  |  |  |  |  | 
O=C(NCCNCCO)N/N=C/c1ccc(Cl)cc1 |  | > 100 | > 100 | > 100 µM | > 100 | > 100 | > 100 µM | > 100 | > 100 | > 100 |  |  |  |  |  |  |  |  | 
COc1c/c(=C2/C=c3ccccc3=N2)[nH]/c1=C/c1[nH]c(C)cc1C |  | > 100 |  | > 100 µM | 0.119 | 1.52 |  | > 100 |  | > 100 | 150 | 72.4 | 59 | 30.9 | 29 | 45.4 |  |  | 
CC[N+](CC)=c1ccc2nc3c(cc(N)c4ccccc43)oc-2c1 | 0.497 |  |  |  | 2.25 |  |  |  |  | 6.94 |  |  | 567 |  | 968 |  | 190 |  | 
CN1C2CC(=O)CC1[C@@H]1OC(c3ccccc3)O[C@H]21 (some centres undefined) |  | > 100 | > 100 | > 100 µM | > 100 | > 100 | > 100 µM | > 100 | > 100 | > 100 |  |  |  |  |  |  |  |  | 
NC(=O)COc1ccccc1 | > 100 | > 100 | > 100 | > 100 µM | > 100 | > 100 | > 100 µM |  |  |  |  |  |  |  |  |  |  |  | 
O=C1NC(N/N=C\c2ccccc2)=N/C1=C/c1ccc(Cl)cc1 |  | 41.2 | 43.3 | 94.7 µM | 82.9 | 76.9 | 36.2 µM | > 100 | 51.4 | 43.4 |  |  |  |  |  |  |  |  | 
COc1ccc(NC2Oc3cc4c(cc3C(c3cc(OC)c(O)c(OC)c3)C2C)OCO4)cc1 (centres undefined) | > 100 | > 100 | 93.6 | > 100 µM | 6.72 | 35.1 | 31.3 µM | > 100 |  | > 100 |  |  |  |  |  |  |  |  | 
OCCN=C1Nc2ccc(Cl)cc2C(=S)N2CSC[C@@H]12 | > 100 |  |  | > 100 µM | > 100 | > 100 | > 100 µM | > 100 |  | > 100 |  |  |  |  |  |  |  |  | 
CCC(C)C1NC(=O)C(NC(=O)C(CC(C)C)N(C)C(=O)[C@@H]2CCCN2)C(C)OC(=O)[C@H](Cc2ccc(OC)cc2)N(C)C(=O)[C@@H]2CCCN2C(=O)[C@H](CC(C)C)NC(=O)C(C)C(=O)[C@H](C(C)C)OC(=O)CC1O (some centres undefined) (H-P[ξNMeL][ξT][X4]LP[NMeY](Me); ester 3-C) | 0.0187 | 0.0107 |  | 0.00314 µM and 0.0195 µM |  | 0.0114 | 0.118 µM and 0.444 µM |  |  | 0.0115 |  |  |  |  |  |  |  | 25.3 | 
O=C(N=Nc1ccccc1Br)NNc1ccccc1Br |  | > 100 | > 100 | > 100 µM | > 100 | > 100 | > 100 µM | > 100 |  | > 100 |  |  |  |  |  |  |  |  | 
CSc1nncc(-c2cc3c(c(SC)n2)CCC3)n1 |  | 10.1 | > 100 | > 100 µM | > 100 | > 100 | > 100 µM | > 100 |  | > 100 |  |  |  |  |  |  |  |  | 
CCOC(=O)c1c(N2CCOCC2)[nH]c(=O)c(C(c2ccc(OC)cc2)c2c(O)c(C(=O)OCC)c(N3CCOCC3)[nH]c2=O)c1O | > 100 |  | > 100 | > 100 µM |  | > 100 | > 100 µM | > 100 | > 100 | > 100 |  |  |  |  |  |  |  |  | 
O=C(NNC(=S)Nc1ccccc1)c1csc(NC(=S)NC2CCCCC2)n1 | > 100 | > 100 |  | > 100 µM | > 100 | > 100 | 79.6 µM | > 100 |  | > 100 |  |  |  |  |  |  |  |  | 
Nc1nc2c(ncn2C2C=CC(CO)O2)c(=O)[nH]1 (centres undefined) | > 100 |  | > 100 |  | > 100 | > 100 | > 100 µM | > 100 | > 100 | > 100 |  |  |  |  |  |  |  |  | 
O=C1OS2(OCc3cccc4cccc2c34)c2ccccc21 (centres undefined) | > 100 | > 100 | > 100 | > 100 µM | > 100 | > 100 | > 100 µM | > 100 |  | > 100 |  |  |  |  |  |  |  |  | 
CSC(=NC1=NC(C(F)(F)F)(C(F)(F)F)N=C(c2ccccc2)O1)SC | 49.2 |  | 83.9 | > 100 µM | 55.9 | 75.2 | 89.2 µM | 45 | 72.5 | 38.9 |  |  |  |  |  |  |  |  | 
O=[As](O)(O)c1cc(N=Nc2ccc(-c3ccc(N=Nc4cc([As](=O)(O)O)c(O)cc4O)cc3)cc2)c(O)cc1O | > 100 | > 100 | > 100 | > 100 µM | > 100 | > 100 | > 100 µM |  |  |  |  |  |  |  |  |  |  |  | 
N#CCCN(CCCN(C(=O)Nc1ccccc1)c1ccccc1)C(=O)Nc1ccccc1 | > 100 | > 100 | > 100 |  | > 100 | > 100 | > 100 µM | > 100 |  | > 100 |  |  |  |  |  |  |  |  | 
CCOC(=O)c1sc2c(c1OC(=O)c1ccccc1)c(=O)n(-c1ccccc1)c(=S)n2-c1ccccc1 | 79.2 | 43.3 | > 100 | > 100 µM |  | 46.5 |  | > 100 | 75.6 | > 100 |  |  |  |  |  |  |  |  | 
COc1ccc(-c2c(C#N)c(-c3ccccc3)n(NS(=O)(=O)c3ccccc3)c(=O)c2C#N)cc1 | > 100 | > 100 | > 100 | > 100 µM | > 100 | > 100 |  |  | > 100 | > 100 |  |  |  |  |  |  |  |  | 
CC1=CC[C@@H]2CC[C@]3(C)[C@H](CC[C@@H]4[C@@]5(C)CCCNC(C)(C)[C@@H]5CC[C@]43C)[C@H]2[C@@H]1C | 2.77 |  |  | 3.71 µM | 3.48 |  | 2.82 µM | 3.55 | 4.04 | 3.02 | 1980 |  | 1580 | 1970 | 1810 |  | 1390 | 1470 | 1790
